From patent US20250207091A1, “METHODS AND COMPOSITIONS FOR PRODUCING PRIMORDIAL GERM CELL-LIKE CELLS” (President and Fellows of Harvard College, priority 2022, published 2025)

Experiments:
VEGFR2 = VEGFR2 (Homo sapiens, UniProt P35968); settings: cited from earlier work
MEK = settings: cited from earlier work
c-Src = c-Src (Homo sapiens, UniProt P12931); settings: cited from earlier work
PDGFR = settings: cited from earlier work
PKC = settings: cited from earlier work
SW480 cells = settings: Huang et al.; cited from earlier work
[1] = tested on: NANOS3-mVenus PSCs (hiPSCs); assay: Primordial germ cell (hPGCLC) induction via TF overexpression in hiPSCs; type: cell-based, human; settings: for effect on NANOS3+ hPGCLC yield: doxycycline induction, monolayer, FIG. 1B
Description: FIGS. 1A-1B show identification of overexpressed transcription factors (TFs) that drive enhancement of NANOS3+ primordial germ cell yield.
A method was designed for high yield germ cell formation from stem cells in monolayer culture conditions, which is described in more detail below and in FIG. 4 with a culture media composition described in Table 1. The TFs DLX5, HHEX, or FIGLA or all three together, were integrated to iPSCs via piggyBac or lentivirus and a purified pool was selected through antibiotic addition. For germ cell induction, 2,500 TF-containing iPSCs per cm^2 were seeded in mTeSR™ medium on Corning® Matrigel® Matrix for six hours. After about 12-18 hours, Media #1 was removed and the cells were again washed, and Media #2 was added. The cells were then grown for about 24 hours, after which Media #2 was replaced by Media #3. The cells were again grown for about 24 hours, after which Media #3 was replaced by Media #4. Finally, the cells were again grown for about 24 hours, at which point primordial germ cells was harvested and isolated via FACS.
Expression plasmids containing TF cDNAs under the control of a doxycycline-inducible promoter were integrated into iPSCs using PiggyBac transposase. To perform the integration, ˜50-100 fmol of TF cDNA plasmid, ˜150-250 ng PiggyBac transposase expression plasmid, and ˜100,000-200,000 iPSCs were combined in Lonza P3 buffer and electroporated using a Lonza Nucleofector 4D. After electroporation, cells were seeded in 24-well plates in mTeSR™ Plus Medium+˜8-12 μM Y-27632. Selection with the appropriate agent (typically puromycin) commenced 48 hours after electroporation and continued for ˜3-5 days. Cells were then passaged without drug selectin for ˜3 days to allow for non-integrated plasmid loss. Finally, cells were again passaged under drug selection to generate a pure, selected integrant pool. Presence and approximate copy number of integrated TF plasmids was confirmed by qPCR on genomic DNA. For oogonia, pools of hiPSCs were utilized, not single cell selected clones. Average copy number was 8-10.
hiPSCs containing integrated TF expression plasmids were cultured in mTeSR 1 medium on Matrigel. For induction in monolayer, hiPSCs are disassociated to single cells using Accutase and seeded on Matrigel or vitronectin XF coated plates at a density of 2,500-3,000 cells per cm^2 in mTeSR™ media+˜8-10 μM Y-27632 and ˜0.5-3 μg/ml doxycycline for about 6 hours. Media was then removed and washed with dPBS and replaced with aRB27 media #1 (see components list in detailed protocol). After about 12-18 hours of induction, media #1 is removed and washed with dPBS and replaced by media #2. After about 24 hours, media #2 is removed and replaced by media #3. […]

Chain of c-Src (P12931 whole entry, species assumed): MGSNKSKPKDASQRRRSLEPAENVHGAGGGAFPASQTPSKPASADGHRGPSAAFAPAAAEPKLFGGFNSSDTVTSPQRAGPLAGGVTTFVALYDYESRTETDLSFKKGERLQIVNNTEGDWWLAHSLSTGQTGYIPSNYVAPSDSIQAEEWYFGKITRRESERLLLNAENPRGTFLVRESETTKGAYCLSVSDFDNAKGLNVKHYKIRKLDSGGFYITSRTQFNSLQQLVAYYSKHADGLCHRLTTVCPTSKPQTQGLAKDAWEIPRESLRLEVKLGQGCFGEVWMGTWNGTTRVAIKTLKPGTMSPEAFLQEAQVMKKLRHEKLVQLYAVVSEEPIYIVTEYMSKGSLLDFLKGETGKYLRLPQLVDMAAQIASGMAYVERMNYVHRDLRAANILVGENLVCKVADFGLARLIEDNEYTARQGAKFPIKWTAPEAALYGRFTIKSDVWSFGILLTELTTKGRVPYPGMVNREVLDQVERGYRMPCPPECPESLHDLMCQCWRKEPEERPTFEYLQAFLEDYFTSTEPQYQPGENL
Chain of VEGFR2 (P35968 20-1356, species assumed): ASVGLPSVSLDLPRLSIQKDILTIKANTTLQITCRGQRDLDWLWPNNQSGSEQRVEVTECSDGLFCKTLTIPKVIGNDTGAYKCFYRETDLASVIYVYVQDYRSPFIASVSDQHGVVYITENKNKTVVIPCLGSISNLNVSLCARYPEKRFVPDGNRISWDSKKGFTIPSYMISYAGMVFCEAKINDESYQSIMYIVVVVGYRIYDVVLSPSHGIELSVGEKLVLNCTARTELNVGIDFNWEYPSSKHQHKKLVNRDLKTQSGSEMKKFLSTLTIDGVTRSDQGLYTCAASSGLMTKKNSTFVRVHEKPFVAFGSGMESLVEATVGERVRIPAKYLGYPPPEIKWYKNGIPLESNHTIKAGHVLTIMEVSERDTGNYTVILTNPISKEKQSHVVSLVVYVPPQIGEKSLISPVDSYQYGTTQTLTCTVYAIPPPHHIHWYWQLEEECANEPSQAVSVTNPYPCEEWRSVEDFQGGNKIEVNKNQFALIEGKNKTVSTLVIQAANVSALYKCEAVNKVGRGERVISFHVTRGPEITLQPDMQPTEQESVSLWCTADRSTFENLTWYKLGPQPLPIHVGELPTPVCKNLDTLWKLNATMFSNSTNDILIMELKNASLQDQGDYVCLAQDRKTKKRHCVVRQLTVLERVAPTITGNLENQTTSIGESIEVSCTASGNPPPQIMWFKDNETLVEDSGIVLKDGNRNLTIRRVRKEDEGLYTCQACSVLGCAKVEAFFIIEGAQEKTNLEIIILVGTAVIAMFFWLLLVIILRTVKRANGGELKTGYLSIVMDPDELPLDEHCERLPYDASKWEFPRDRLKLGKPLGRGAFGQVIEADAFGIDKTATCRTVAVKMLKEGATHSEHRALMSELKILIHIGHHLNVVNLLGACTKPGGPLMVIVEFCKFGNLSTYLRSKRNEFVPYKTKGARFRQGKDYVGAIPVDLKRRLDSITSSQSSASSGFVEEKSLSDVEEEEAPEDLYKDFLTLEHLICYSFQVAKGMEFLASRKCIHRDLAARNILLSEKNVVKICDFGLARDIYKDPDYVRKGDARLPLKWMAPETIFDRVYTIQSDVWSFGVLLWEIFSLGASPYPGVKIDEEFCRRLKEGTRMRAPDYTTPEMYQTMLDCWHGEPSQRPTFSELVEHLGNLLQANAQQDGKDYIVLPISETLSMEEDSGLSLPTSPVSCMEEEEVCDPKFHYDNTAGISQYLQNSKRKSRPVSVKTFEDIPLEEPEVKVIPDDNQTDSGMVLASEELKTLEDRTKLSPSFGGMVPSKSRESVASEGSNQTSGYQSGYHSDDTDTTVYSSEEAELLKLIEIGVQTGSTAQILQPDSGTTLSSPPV

Molecule: CCN(CC)CCCCNc1ncc2cc(-c3cc(OC)cc(OC)c3)c(NC(=O)NC(C)(C)C)nc2n1 [PD 173074]
- IC50 (VEGFR2): ~0.1 µM
- IC50 (MEK): > 50 µM
- IC50 (c-Src): ~19.8 µM
- IC50 (PDGFR): ~17.6 µM
- IC50 (PKC): > 50 µM

Molecule: Oc1nc(-c2ccc(C(F)(F)F)cc2)nc2c1CSCC2 [XAV939]
- effect on β-catenin (SW480 cells): promotes the degradation of β-catenin

Molecule: DLX5: Distal-Less Homeobox 5 transcription factor (SEQ ID NO: 2), overexpressed in PSCs from a doxycycline-inducible polynucleotide
- germ cell formation rescue compared to wildtype ([1]; absence of BMP4): 50%
- effect on NANOS3+ hPGCLC yield [1]: enhanced
- activity (hPGCLC yield) retained without hBMP4 ([1]; without hBMP4, compared to normal condition, FIG. 3A): 40%

Molecule: FIGLA: Folliculogenesis Specific BHLH Transcription Factor (SEQ ID NO: 1), overexpressed in PSCs from a doxycycline-inducible polynucleotide
- effect on NANOS3+ hPGCLC yield [1]: enhanced

B1: HHEX: Hematopoietically Expressed Homeobox transcription factor (SEQ ID NO: 3), overexpressed in PSCs from a doxycycline-inducible polynucleotide (protein)
chain: MQYPHPGPAAGAVGVPLYAPTPLLQPAHPTPFYIEDILGRGPAAPTPAPTLPSPNSSFTSLVSPYRTPVYEPTPIHPAFSHHSAAALAAAYGPGGFGGPLYPFPRTVNDYTHALLRHDPLGKPLLWSPFLQRPLHKRKGGQVRFSNDQTIELEKKFETQKYLSPPERKRLAKMLQLSERQVKTWFQNRRAKWRRLKQENPQSNKKEELESLDSSCDQRQDLPSEQNKGASLDSSQCSPSPASQEDLESEISEDSDQEVDIEGDKSYFNAG
- effect on NANOS3+ hPGCLC yield [1]: enhanced
